# Test results as given in patent US20220145406A1, “BIOMARKERS, AND USES IN TREATMENT OF VIRAL INFECTIONS, INFLAMMATIONS, OR CANCER” (ABIVAX, priority 2018, published 2022).
# Assays:
# [1] = system: HIV-1 YU-2 strain; test: HIV-1 replication measured by p24 production in infected PBMCs; format: cell-based; settings: Human immunodeficiency virus 1, PBMC; 5 μM ABX464; PBMCs from 6 donors infected with YU-2 strain; read-out: inhibition of viral replication (p24 production)
# Description: Buffy coats from HIV-negative individuals were obtained from the local blood donation center in Centre de transfusion sanguine Montpellier. Human peripheral blood mononuclear cells (PBMCs) were isolated by Ficoll (Histopaque, Sigma) gradient centrifugation. CD4+ and CD8+ T cells were purified from PBMCs after Ficoll gradient centrifugation by Human CD4+ beads positive selection and CD8+ beads positive selection, respectively (Miltenyi). PBMCs, CD4+ and CD8+ T cells were grown at 37° C. and 5% CO2 to a density of 1.5×10^6 cells/ml in RPMI GlutaMAX medium (Life Technologies) supplemented with 10% fetal calf serum (FCS) (Thermo Fisher), 40 U/ml of IL2 (PeproTech) and 5 μg/mL of PHA (Roche) for 2 days. […]
# PBMCs from 6 HIV-negative donors were infected with the YU-2 strain, followed by treatment with ABX464. […] To highlight potential new splicing events induced by ABX464, we used a custom bioinformatics pipeline with the main step involving the assembly of putative transcripts from targeted RNA sequencing reads to construct contigs (Illumina paired-end 2×75 bp) (FIGS. 6 A and B). […] The HIV profiling datasets used in our analysis yielded high sequence coverage (2 to 30 million reads for the 9 kb genome), allowing deep quantification of HIV splice variants.
# [2] = system: CD4+ T cells; test: RNAseq differential alternative splicing analysis (SUPPA) of cellular genes; format: cell-based, human; design: key to differential splicing Event type, gene ZNF177 / differential splicing Event type, gene FGF22 / differential splicing Event type, gene AL157955.2 / differential splicing Event type, gene TMEM147 / differential splicing Event type, gene ATIC / differential splicing Event type, gene CDRT15 / differential splicing Event type, gene WDR72 / differential splicing Event type, gene GNRHR2 / differential splicing Event type, gene ZNE584 / differential splicing Event type, gene LINC01869 / differential splicing Event type, gene LINC01119: Alternative 5′ splice site (A5); Alternative 3′ splice site (A3); Alt exons: Alternative first and last exons (Altexons); Retained intron (RI)
# Description: Buffy coats from HIV-negative individuals were obtained from the local blood donation center in Centre de transfusion sanguine Montpellier. Human peripheral blood mononuclear cells (PBMCs) were isolated by Ficoll (Histopaque, Sigma) gradient centrifugation. CD4+ and CD8+ T cells were purified from PBMCs after Ficoll gradient centrifugation by Human CD4+ beads positive selection and CD8+ beads positive selection, respectively (Miltenyi). PBMCs, CD4+ and CD8+ T cells were grown at 37° C. and 5% CO2 to a density of 1.5×10^6 cells/ml in RPMI GlutaMAX medium (Life Technologies) supplemented with 10% fetal calf serum (FCS) (Thermo Fisher), 40 U/ml of IL2 (PeproTech) and 5 μg/mL of PHA (Roche) for 2 days. Three days later, cells were resuspended at 1.5×10^6 cells/ml in RPMI supplemented with 10% FCS and 40 U/ml IL2 and separated into two parts (infected and uninfected cells). Cells were infected with 80 ng of p24/106 cells of the YU-2 strain for 4 to 6 hours and then rinsed with PBS before medium renewal.
# Both infected and uninfected cells were then centrifuged and resuspended to a density of 1.5×10^6 cells/ml in medium supplemented with diluted drug solubilized in DMSO (Sigma) to a final 0.05% DMSO concentration or antiretroviral compounds according to the manufacturer's instructions. Cells were treated for 6 days with a medium renewal at day 3. HIV p24 titration was performed by ELISA from cell culture supernatants with Innotest kit (Ingen) according to the manufacturer's instructions.
# A full-detailed report describing the complete analysis was submitted to Gene Expression Omnibus (GEO, https://www.ncbi.nlm.nih.gov/geo/query/acc.cgi?acc=GSE116073). Total RNA extraction was performed according to the Qiagen miRNeasy □ kit. RNA concentrations were determined using Qubit[…] fluorometric quantification and purity by the RNA 6000 Bioanalyzer kit (Agilent). RNA-Seq libraries were constructed with the TruSeq stranded mRNA sample preparation (low-throughput protocol) kit from Illumina, according to the manufacturer's instructions. Aliquots of 1.2 μg of total RNA were used for the construction of the libraries. The final cDNA libraries were validated with a Fragment Analyzer (Advanced Analytical, Ankeny, Iowa) and quantified with a KAPA qPCR kit (Kapa Biosystems, Wilmington, Mass.). On the 8 sequencing lanes of a flow cell V4, the 32 libraries were pooled in equal proportions by sets of 4 libraries per lane, denatured with NaOH and diluted to […] before clustering. Cluster formation and primer hybridization and single-end read, 50-cycle sequencing were performed on the cBot and HiSeq 2500 (Illumina, San Diego, Calif.), respectively. Image analysis and base calling were performed using the HiSeq Control Software with the Real-Time Analysis component. Demultiplexing was performed using Illumina's sequencing analysis software. The quality of the data was assessed using FastQC from the Babraham Institute and the Illumina software SAV (Sequence Analysis Viewer). Potential contaminants were investigated with the FastQ Screen software from the Babraham Institute.
# To investigate splicing activity we used SUPPA v2.0.0, a tool developed in Python 3.4 and especially designed for this approach. To study splicing across multiple conditions, we performed three modular operations that were run separately. The first step was to generate events from the annotation file commonly named the GTF file (general […]). The second step was to quantify event inclusion levels (PSIs) from our samples. Finally, differential splicing across multiple conditions was calculated for all replicates.
# To generate the different alternative splicing events from an input annotation file (GTF format), the method reads transcript and gene information solely from the “exon” lines in the GTF. It then generates the events and outputs an ‘ioe’ file, which contains the relationship between each event and the transcripts that share this particular event. […]
# [3] = ABX464_NI_VS_DMSO_NI, uninfected CD4 T cells
smiles,measurement,setting,value
"FC(F)(F)Oc1ccc(Nc2ccc3cccc(Cl)c3n2)cc1 [ABX464, 8-chloro-N-(4-(trifluoromethoxy)phenyl)quinolin-2-amine]",inhibition at 5 µM,[1],> 70%
same,"differential splicing Event type, gene AL157955.2",[2]; [3],A3
same,"differential splicing Event type, gene ATIC",[2]; [3],A5
same,"differential splicing Event type, gene CDRT15",[2]; [3],A5
same,"differential splicing Event type, gene FGF22",[2]; [3],A3
same,"differential splicing Event type, gene GNRHR2",[2]; [3],RI
same,"differential splicing Event type, gene LINC01119",[2]; [3],A3
same,"differential splicing Event type, gene LINC01869",[2]; [3],A3
same,"differential splicing Event type, gene TMEM147",[2]; [3],RI
same,"differential splicing Event type, gene WDR72",[2]; [3],A5
same,"differential splicing Event type, gene ZNE584",[2]; [3],A3
same,"differential splicing Event type, gene ZNF177",[2]; [3],A3
same,number of common and differential splicing events,"[2]; infected and uninfected CD4+ T cells treated with ABX464, ΔPSI >0.4, p <0.05",< 10 events
